Measured values taken from patent EP0278997A1, “Azapropazone rectal capsules” (SIEGFRIED AKTIENGESELLSCHAFT, priority 1987, dated 1988).
“And” between values parts separate entries of the source, which are not always exact repeats. Equal values may be shown once. Read-outs that look alike come from different tables or passages of the source.

Assay: Bioavailability of the rectal capsule versus i.v. administration (plasma AUC 0-72) in test subjects
Assay type: in vivo
Settings: for AUC at 72 h: human, plasma, iv, read-out: A U C 0 - 72

- AUC at 72 h (geometric mean (geom.x) of 6 Probanden): 1060 µg·h/mL
- AUC at 72 h (mean (x) of 6 Probanden): 1080 µg·h/mL
Structure (SMILES): CCCC1C(=O)N2C(N(C)C)=Nc3ccc(C)cc3N2C1=O (stereo not drawn) [Azapropazon, 3-Dimethyl-amino-7-methyl-1,2-(n-propyimaionyi)-1,2-dihydro-1,2.4-benzotriazin]
- A U C 0 - 72 (individual Proband, 4320 min): 926.46 mcg/ml.Std and 728.31 mcg/ml.Std and 1158.02 mcg/ml.Std and 964.71 mcg/ml.Std and 1466.56 mcg/ml.Std and 1252.36 mcg/ml.Std
